What was measured:
[1] = target: sigma-1 receptor (Homo sapiens, UniProt Q99720); assay: sigma 1 binding assay; conditions: ratio of sigma-1 K i to H3R K i
[2] = target: T1, H3R (Rattus norvegicus, UniProt Q9QYN8); assay: In vitro autoradiography on rat brain sections; format: binding, SD rat
T1 construct: The brains of SD rat were sectioned into 15 μm slices; from tissue; host or cells: SD rat brain sections
Procedure: To validate the target specificity and selectivity, in vitro autoradiography experiments were conducted using [^18F]3 and [^18F]4 on rat brain sections. […] Furthermore, pretreatment with unlabeled compound 3 (10 μM) led to a signal reduction of over 90% in the brain. […] This discrepancy is likely attributable to additional off-target binding of [^18F]3, which is further supported by high uptake in the cerebellum – a region with low H3R expression. […] The high uptake in the cerebellum may be attributed to nonspecific binding to unidentified CNS targets. […] Nonetheless, the results support further in vivo PET evaluation to better understand their binding profiles and evaluate their potential for H3R imaging – particularly in regions with low sigma-1 abundance.
The ARG was measured according to previously reported methods. , The brains of SD rat were sectioned into 15 μm slices and stored in −80 °C. For each experiment, the brain slices allowed them to warm to room temperature and then incubated in Tris-HCl buffer (50 mM, containing 0.1% bovine serum albumin) for 10 min. The slices were incubated with [^18F]3 or [^18F]4 (0.037 MBq/mL) in the presence of either DMSO (baseline study), GSK189254 (10 μM, blocking study), and unlabeled 3 or 4 (10 μM, blocking study) at room temperature for 30 min. Following incubation, the brain slices were washed three times with cold Tris-HCl buffer (50 mM) for 5 min each, and then dipped in water 2 times for 5 s. The brain slices were dried under cold air and exposed to a Phosphor Screen (BAS IP MS2025, Cytiva) for 2 h. The radioactivity and imaging were captured using an Amersham Typhoon 5 (Cytiva) and the data were analyzed using ImageJ software.

[3] = target: T2, sigma-1 receptor (Mus musculus, UniProt O55242); assay: PET imaging in mice with NE-100 or ABT-239 blocking; format: in vivo
T2 construct: we conducted additional in vivo PET imaging studies using NE-100; from tissue; host or cells: brain of living mice

[4] = In vitro stability in liver microsomes, NHPs; format: in vitro ADME, nonhuman primates (NHPs); conditions: 90 min
Procedure: (§1) To assess the stability of [^18F]3, in vitro radioactivity analyses were conducted following 30-, 60- and 90 min coincubation of the radioligand in the serum and liver microsomes from mice, nonhuman primates (NHPs), and humans (Figure ).
(§2) Serum from mice, NHPs, and humans were warmed to room temperature, 15 MBq of [^18F]3 was added to 0.4 mL of each species’ serum. The mixtures were incubated at 37 °C and 0.1 mL of mixture was transferred into 0.2 mL cold acetonitrile at 30, 60, and 90 min. The samples were vortexed for 15 s and then centrifuged at 10,000g for 5 min. The supernatant was analyzed using analytical HPLC (Agilent 1100 series HPLC system on Phenomenex Luna C-18 column (4.6 × 150 mm), mobile phase 30% CH3CN/0.1% TFA in water, flow:1 mL/min). For microsomes studies, a mixture of microsomes (0.5 mg/mL), [^18F]3 (15 MBq), 0.35 mL of PBS, 0.05 mL of NADPH regenerating system A, and 0.01 mL of NADPH regenerating system B were incubated at 37 °C. The subsequent steps followed the same procedure as described above.

[5] = target: T3, H3R (Homo sapiens, UniProt Q9Y5N1); assay: H3R competitive radioligand binding assay using [^3H]AZ13582963; conditions: competitive binding vs [^3H]AZ13582963; read-out: H3R K i
T3 construct: Gifford Bioscience (contract laboratory that ran the assay)

[6] = In vitro stability in liver microsomes, mice; format: in vitro ADME; conditions: 90 min
Procedure: as §1, §2

[7] = In vitro stability in serum, mice; format: in vitro ADME; conditions: 37 °C, 30, 60 and 90 min
Procedure: as §1, §2

[8] = system: P-glycoprotein (P-gp) and breast cancer resistance protein (BCRP); assay: PET imaging in mice pretreated with elacridar; format: in vivo; conditions: elacridar 3 mg/kg, 20 min prior to radioligand injection
Procedure: To determine whether [^18F]3 is actively effluxed by BBB transporters such as P-glycoprotein (P-gp) and breast cancer resistance protein (BCRP), we conducted additional PET scans in mice pretreated with elacridar (3 mg/kg, a dual P-gp/BCRP inhibitor) 20 min prior to radioligand injection.
Figure S4. Mice PET imaging studies (0−60 minutes) of [ 18F]3. (A) TACs of [ 18F]3 in the whole-brain under baseline and elacridar-blocking (3 mg/kg) conditions; (B) Area under curve of [ 18F]3 in the whole-brain; All data were referred to as mean ± SD, n = […]
The molar activities of [18F]3 and [18F]4 were determined using calibration curves, which were generated by plotting the concentration of the authentic standard compounds 3 or 4 against their respective flow injection analysis peak area ratios ([…]). Based on these calibration curves, the molar activities of [18F]3 and [18F]4 were calculated and reported as GBq/µmol.
Figure S5. Calibration curves of compounds 3 (A) and 4 (B). The standard curve was generated by plotting the HPLC UV signal area against concentrations of the compounds 3 or 4. Linear regression analysis was performed to determine the correlation between peak area and […]

T1 sequence (Q9QYN8 whole entry): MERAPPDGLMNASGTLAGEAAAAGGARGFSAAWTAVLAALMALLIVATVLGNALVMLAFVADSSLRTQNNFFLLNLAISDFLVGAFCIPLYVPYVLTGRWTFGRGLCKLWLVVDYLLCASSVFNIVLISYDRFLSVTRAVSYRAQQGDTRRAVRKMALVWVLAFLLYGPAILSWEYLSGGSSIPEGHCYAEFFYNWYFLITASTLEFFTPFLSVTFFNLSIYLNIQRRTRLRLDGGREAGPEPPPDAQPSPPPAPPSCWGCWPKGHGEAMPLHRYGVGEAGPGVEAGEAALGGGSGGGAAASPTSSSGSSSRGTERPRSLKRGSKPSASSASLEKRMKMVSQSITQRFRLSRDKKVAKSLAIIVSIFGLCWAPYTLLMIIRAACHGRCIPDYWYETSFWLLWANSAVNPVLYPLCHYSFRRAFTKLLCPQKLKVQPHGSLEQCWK
T2 sequence (O55242 whole entry): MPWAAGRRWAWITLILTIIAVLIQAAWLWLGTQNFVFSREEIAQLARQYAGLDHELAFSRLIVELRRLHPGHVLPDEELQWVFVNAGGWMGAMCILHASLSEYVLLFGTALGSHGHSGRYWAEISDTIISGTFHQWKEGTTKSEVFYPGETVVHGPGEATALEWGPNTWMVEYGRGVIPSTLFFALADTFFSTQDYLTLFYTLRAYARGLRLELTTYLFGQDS
T3 sequence (Q9Y5N1 whole entry, species assumed): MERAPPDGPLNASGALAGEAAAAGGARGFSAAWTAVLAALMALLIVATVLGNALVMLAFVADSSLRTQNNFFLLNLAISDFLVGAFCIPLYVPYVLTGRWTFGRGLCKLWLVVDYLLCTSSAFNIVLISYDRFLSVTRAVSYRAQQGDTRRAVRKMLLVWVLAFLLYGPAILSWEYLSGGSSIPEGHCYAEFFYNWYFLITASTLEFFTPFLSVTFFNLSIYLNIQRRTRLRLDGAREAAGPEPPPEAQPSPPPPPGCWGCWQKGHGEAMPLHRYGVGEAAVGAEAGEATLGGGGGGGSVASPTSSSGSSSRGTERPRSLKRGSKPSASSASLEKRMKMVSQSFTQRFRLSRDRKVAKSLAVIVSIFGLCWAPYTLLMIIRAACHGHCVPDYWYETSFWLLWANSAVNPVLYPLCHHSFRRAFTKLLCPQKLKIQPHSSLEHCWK
Chain of sigma-1 receptor (Homo sapiens, UniProt Q99720) (Q99720 whole entry, species assumed): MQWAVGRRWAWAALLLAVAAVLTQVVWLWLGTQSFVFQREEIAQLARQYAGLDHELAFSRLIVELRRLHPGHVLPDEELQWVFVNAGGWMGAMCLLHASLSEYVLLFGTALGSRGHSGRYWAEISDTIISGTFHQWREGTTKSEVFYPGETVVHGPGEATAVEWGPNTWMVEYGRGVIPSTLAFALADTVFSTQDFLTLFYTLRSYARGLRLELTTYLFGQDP

selectivity of H3R over sigma-1 [1]: 69 fold | reduction in radioactivity across brain regions, GSK189254 blocking ([2]; GSK189254 10 μM): 43.6–86.0% | signal reduction, self-blocking with unlabeled compound ([2]; unlabeled 3 or 4 at 10 μM): over 90% | effect of ABT-239 preinjection on brain signal ([3]; ABT-239 (dual H3R and sigma-1 receptor antagonist) 3 mg/kg): near-complete signal blockade | effect of NE-100 blocking on brain uptake ([3]; NE-100 (selective sigma-1 receptor antagonist) 3 mg/kg): partial reduction | parent fraction in liver microsomes [4]: 85% | Ki [5]: 2.87 nM | parent fraction in liver microsomes [6]: 78% | parent compound remaining intact in serum [7]: over 95% | change of brain uptake after elacridar pretreatment [8]: did not significantly change
Compound: O=C([C@H]1C[C@@H]1c1ccc([18F])cc1)N1CCN(C2CCCC2)CC1 [[^18F]3]
